Experimental data from PMC1978516, “The PDZ Domain as a Complex Adaptive System” (PLoS ONE, 2007).
Ends that are not written are not given here.

What was measured:
PSD95-PDZ3 [1] = assay: phage ELISA on immobilized GST-PDZ fusion; type: binding; conditions: Fig. 1 and not shown
Method: Binding histograms were obtained by individual phage ELISA performed on purified GST fusions of the indicated domains immobilized in micro-titer plate wells [40]. For accurate relative affinity evaluations and cross-domain comparison, the slopes of individual ELISA kinetics were determined and normalized by the highest slope value in each of the six sets shown. The 96th well in each set was loaded with a library aliquot to indicate background. Axis X indicates identification (i.d.) numbers of individual artificial ligands (see individual ligand sequences together with their i.d. numbers in Table S1). Axis Y indicates the normalized relative affinity. The domain organization of the PSD95 and SAP97 proteins is shown above histograms.
GST fusion-coated microtiter ELISA plates (COSTAR) were prepared by passive immobilization of 1 µg of the indicated GST fusion proteins (Fig. 1) per well in 200 µl of 0.1M NaHCO3, pH 8.0, overnight at 4°C. Following protein coating, plates were blocked by adding 150 µl of 1% BSA in TBS for 1 hour at RT. Following incubation, the wells with immobilized target proteins were washed 5 (x1ml) times with TBS-T. One hundred µl of freshly prepared individual phage lysate was added to the ELISA plate wells and incubated for 1 hour at RT. Following incubation, unbound phages were washed away with TBS-T and the amount of retained phages was determined with polyclonal T7 phage-specific antibodies followed by monoclonal anti-rabbit antibodies conjugated to horseradish peroxidase (HRP) (Amersham Pharmacia). The individual phage ELISA kinetics were followed and quantified colorimetrically using soluble HRP substrate (ABTS/H2O2). ELISA readings were taken on a SpectraMAX190 plate reader (Molecular Devices) at 405 nm. To ensure reproducibility, each of the individual phage ELISA binding histograms presented was obtained at least three times in at least three separate experiments performed by two different experimenters.

second PSD95 PDZ domain = conditions: cited from earlier work
Description: (§1) In order to gain insight into the pattern recognition differences of the PDZ domains that belong to the same class but are able to differentiate between peptide ligands sharing the class-defining C-terminal consensus, we investigated a particular case of this general puzzle, namely, the differences in recognition preferences between the second and third PDZ domains of PSD95, which are classified as type I PDZ domains but are known to discriminate between various X-(S/T)-X-(V/I/L)-COOH ligands, [18]. In Fig. 5A we compare two sets of C-terminal sequences. The first set represents the s ...

third PSD95 PDZ domain = conditions: cited from earlier work
Description: as §1

first PSD95 PDZ domain = conditions: cited from earlier work
Description: as §1

PSD95-PDZ3 [2] = assay: peptide ELISA on immobilized GST-PDZ fusion; type: binding; conditions: Fig. 3
Description: (§2) Figure 3 Binding of 126 proteomic fragments (natural ligands) to six PDZ domains of PSD95 and SAP97. Binding histograms were obtained by peptide ELISA performed on purified GST fusions of the indicated domains immobilized in micro-titer plate wells as described previously. The X axis indicates the i.d. numbers of natural ligands (see Table S2). The Y axis indicates the peptide ELISA kinetics slope value in arbitrary units (a.u.). The 127th and 128th wells in each of the six sets were loaded with irrelevant peptides to indicate background signal. To illustrate internal consistency of the affinity evaluations obtained by peptide ELISA and their external consistency with the previously published affinity measurements, the reported affinities of the five PDZ domain-ligand pairs obtained by three different research groups using fluorescence polarization, [18], [32] are shown.
(§3) Wells of microtiter plates were coated with 1 µg of the indicated GST-PDZ domain fusions, washed with TBS-T and blocked with 1% BSA in the same way as described above for phage ELISA. Individual biotinylated peptides (30 ng) were pre-incubated with 1 µg of streptavidin-HRP conjugate (Pierce) in 300 µl of TBS-T for 30 min at RT. One hundred µl of the peptide-streptavidin-HRP conjugate were added to 100 µl of TBS-T left in each coated well after the final wash of the protein immobilization/blocking procedure. Microtiter plates were incubated for 1 hour at RT, and then washed 5 (x1mL) times with TBS-T. The amounts of peptides retained were quantified colorimetrically by adding soluble HRP substrate (ABTS/H2O2) and measuring ELISA kinetic slopes. ELISA readings were taken on a SpectraMAX190 plate reader (Molecular Devices) at 405 nm. To ensure reproducibility, all peptide ELISA experiments presented were repeated at least three times in at least three separate experiments performed by two different experimenters.

PSD95-PDZ2 = assay: peptide ELISA on immobilized GST-PDZ fusion; type: binding; conditions: Fig. 3
Description: as §2, §3

SAP97-PDZ2 = assay: peptide ELISA on immobilized GST-PDZ fusion; type: binding; conditions: Fig. 3
Description: as §2, §3

Substance | interaction with PSD95-PDZ3 in vitro (PSD95-PDZ3 [1]) | interaction with the second PSD95 PDZ domain (second PSD95 PDZ domain) | interaction with the third PSD95 PDZ domain (third PSD95 PDZ domain) | interaction with the first PSD95 PDZ domain (first PSD95 PDZ domain) | also measured
TTGKKRRWYHSF> [compound 19] | interacts selectively and with reasonable affinity |  |  |  | 
VNKSKLLTDV-OH [Kv1.1] |  | bind | fail to interact | bind | 
ALPDGNIAESLESLV> [compound 018, N-terminally biotinylated 15-mer proteomic fragment, SWISS-PROT P23471, receptor-type tyrosine protein phosphatase zeta] |  |  |  |  | binding to the third PDZ domain of PSD95 (PSD95-PDZ3 [2]): not to their third PDZ domains; binding to the second PDZ domain of PSD95 (PSD95-PDZ2): bind to the second PDZ domains; binding to the second PDZ domain of SAP97 (SAP97-PDZ2): bind to the second PDZ domains
EKLSSIESDV-OH [NR2B] |  | bind | fail to interact | bind | 
TRGTKRSWYHSF> [compound 17] | interacts selectively and with reasonable affinity |  |  |  | 
VNITKMLTDV-OH [Kv1.2] |  | bind | fail to interact | bind | 
TRGTKRSWYYSF> [compound 20] | interacts selectively and with reasonable affinity |  |  |  | 
IADESDPAESMESLV> [compound 017, N-terminally biotinylated 15-mer proteomic fragment, SWISS-PROT P23470, receptor-type tyrosine protein phosphatase gamma] |  |  |  |  | binding to the third PDZ domain of PSD95 (PSD95-PDZ3 [2]): not to their third PDZ domains; binding to the second PDZ domain of PSD95 (PSD95-PDZ2): bind to the second PDZ domains; binding to the second PDZ domain of SAP97 (SAP97-PDZ2): bind to the second PDZ domains
TSGTKRSWYHSF> [compound 18] | interacts selectively and with reasonable affinity |  |  |  | 
KKMPSIESDV-OH [NR2A] |  | bind | fail to interact | bind | 
VNIKKIFTDV-OH [Kv1.3] |  | bind | fail to interact | bind | 
